Laboratory results taken from US10035830B2, “Method for treatment of GM1 gangliosidosis” (Korea Research Institute of Bioscience and Biotechnology, priority 2014, dated 2018).

How the values were obtained:
[1] = system: GM1-NPCs originated neurosphere; assay: Recovery of GM1-NPCs/neurosphere morphology by the inhibition of inflammasome (phase-contrast microscopy); format: cell-based, human; details: GM1-NPCs cultured with 1 μg/ml rhIL1RA or 10 μM Z-YVAD-FMK, 2~4 weeks; FIG. 30a
Protocol: To investigate the recovery of neural damage caused by the increased activation of inflammasome related metabolic pathway in GM1, GM1-NPCs were treated with the inflammasome inhibitors IL1β antagonist (rhIL1RA) and caspase-1 inhibitor (Z-YVAD-FMK), and then the morphology of GM1-NPCs was investigated.
Particularly, the differentiation of GM1-NPCs was induced by the same manner as described in Example <4-1>. Then, the induced GM1-NPCs were cultured in the culture medium respectively treated with 1 μg/ml rhIL1RA (R&D Systems, USA) or 10 μM Z-YVAD-FMK (Merck Millipore, Germany) in order to inhibit inflammasome therein. 2˜4 weeks later, the cultured GM1-NPCs originated neurosphere was obtained. The morphology of neurosphere was observed by phase-contrast microscopy.

GM1-NPCs = assay: Gene expression pattern in GM1-NPCs treated with inflammasome inhibitor (microarray, qPCR); format: cell-based, human; details: for tendency of changed genes to recover to the normal gene expression pattern: GM1-NPCs treated with Z-YVAD-FMK (10 μM) or rhIL1RA (1 μg/ml), FIG. 31, 33
Protocol: Particularly, GM1-iPSCs were constructed by the same manner as described in Example 2 and the differentiation of GM1-NPCs was induced by the same manner as described in Example <4-1>. Then, RNA was extracted from GM1-fibroblasts, GM1-iPSCs, or GM1-NPCs by using RNAiso Plus (Takara, Japan) or RNeasy mini kit (Qiagen, USA) according to the manufacturer's protocol. Reverse transcription PCR (PT PCR) was performed using 1˜2 μg of the extracted RNA as a template with Superscript III (Invitrogen, USA) in order to synthesize cDNA of the cell genome. Upon completion of the RT-PCR, 10 μl of qPCR reaction mixture was prepared by mixing 0.2 μl of the reaction product above, 1 μM oligonucleotide primer, […] of FAST SYBR green master mix (Applied Biosystems, USA), and distilled water, which proceeded to qPCR using 7500 Fast Real-time PCR system (Applied Biosystems, USA). The expression of the control GAPDH gene was also confirmed by the same manner as described above to correct the expression level. Based on the expression level of GAPDH mRNA, the fold change of NESTIN, NCAM, PAX6, OTX2, or REX1 mRNA was calculated.
Particularly, GM1-iPSCs were constructed by the same manner as described in Example 2, and the differentiation of GM1-NPCs was induced therefrom by the same manner as described in Example <4-1>. Then, GM1-fibroblasts, GM1-iPSCs, and GM1-NPCs were obtained. Microarray was performed by using Low RNA input linear amplification kit, cRNA cleanup module, and Whole Human Genome Microarray 4×44K (Agilent Technology, USA) according to the manufacturer's protocol. The obtained microarray images were revised as signals corresponding to WT-fibroblasts, WT-iPSCs, and WT-NPCs.
Particularly, GM1-NPCs were differentiated according to the method described in Example <4-1>, and then treated with rhIL1RA or Z-YVAD-FMK by the same manner as described in Example <9-1>. Microarray was performed by the same manner as described in Example <7-1> in order to investigate the up- or down-regulation of the gene involved in inflammasome. […] WT-NPC was used as the normal control. As for the negative control, GM1-NPCs were treated with DMSO instead of rhIL1RA or Z-YVAD-FMK. The expression pattern (either up- or down regulation) and the mRNA expression level were investigated by the same manner as described above.

[2] = GM1-NPCs treated with Z-YVAD-FMK (10 μM), FIG. 32

| Molecule | morphology of GM1-neurosphere [1] | tendency of changed genes to recover to the normal gene expression pattern (GM1-NPCs) | increase of the reduced B4GALNT expression (GM1-NPCs; [2]) [fold] | reduction of GLB1 expression compared with that in GM1-NPCs (GM1-NPCs; [2]) [%] | oligo probe pairs displaying the changed expression pattern (GM1-NPCs; GM1-NPCs treated with Z-YVAD-FMK (10 μM), of total 27,375 oligo probe pairs, microarray, FIG. 31) [%] | genes displaying the changed expression pattern (GM1-NPCs; GM1-NPCs treated with rhIL1RA (1 μg/ml), FIG. 33) [%] |
| --- | --- | --- | --- | --- | --- | --- |
| COC(=O)C[C@H](NC(=O)[C@H](C)NC(=O)[C@@H](NC(=O)C(Cc1ccc(O)cc1)NC(=O)OCc1ccccc1)C(C)C)C(=O)CF (stereo partly drawn) [Z-YVAD-FMK, methyl(3S)-3-[(2S)-2-[(2S)-2-(2-{[(benzyloxy)carbonyl]amino}-3-(4-hydroxyphenyl)propanamido)-3-methylbutanamido]propanamido]-5-fluoro-4-oxopentanoate] | recovering the GM1 patient-specific cell morphology | tendency to recover their gene expression patterns changed by GM1 mediated neural damage back to the normal pattern | 2.6 | 47 | 9.3 |  |
| rhIL1RA: interleukin 1-receptor antagonist protein, SEQ. ID. NO: 2; cat #280-RA-050 (rhIL-1ra), R&D systems | recovering the GM1 patient-specific cell morphology | tendency to recover the abnormal gene expression in GM1 cells to the normal expression pattern |  |  |  | 3.6 |
